Data taken from publication PMC8232766, “Chemical Composition and Immunomodulatory Activity of Essential Oils from Rhododendron albiflorum” (Molecules, 2021).

Key:
HL60 cells = test: Cytotoxicity assay (CellTiter-Glo) in HL60 cells; assay type: cell-based, human; conditions: 30 min, oils up to 25 µg/mL, compounds up to 25 µM
Method: Cytotoxicity of essential oils and pure compounds was analyzed in human promyelocytic HL60 cells using a CellTiter-Glo Luminescent Cell Viability Assay Kit (Promega), as described previously.

[1] = system: human C20 microglial cells; test: Inhibition of fMLF-induced Ca2+ influx in C20 microglial cells; assay type: cell-based; conditions: 10 min, pure compounds, 10 min incubation, induced by 10 μM fMLF
Method: (§1) Human C20 microglial cells were kindly provided by Dr. David Alvarez-Carbonell (Department of Molecular Biology and Microbiology, Case Western Reserve University, Cleveland, OH, USA); these are immortalized primary human microglial cells that maintain characteristics of primary microglial cells. C20 cells were grown at 37 °C and 5% CO2 in DMEM:F12 medium supplemented with 10% FBS, 2.5 mM L-glutamine, 110 mg/L sodium pyruvate, 15 mM HEPES, 100 μg/mL normocin, 100 μg/mL streptomycin, and 100 U/mL penicillin.
(§2) For analysis of Ca^2+ influx in C20 microglial cells, the cells were plated in 96-well black, clear bottom plates at 10^4 cells/well in DMEM/F12 medium containing 10% FBS. The cells were treated with 200 nM PMA for 24 h, and the medium was changed every day for 5 days. On day 5, the cells were loaded with FLIPR Calcium 5 (Molecular Devices) at a volume ratio of 1:1 for 30 min at 37 °C in the dark. The plates were then placed in a FlexStation 3 fluorometer, and basal fluorescence was measured (λex = 485 nm, λem = 538 nm). Essential oils or individual compounds of interest were added manually (final concentration of DMSO was 1%), and fluorescence was monitored for 2 min to assess the direct effects of these treatments on [Ca^2+]i. After a 10 min incubation at 37 °C, the fluorescence baseline was recorded again, and 10 µM fMLF was added to evaluate inhibitory effects on agonist-induced [Ca^2+]i. Responses were normalized to the response induced by 10 µM fMLF.
(§3) For all Ca^2+ influx experiments, curve fitting (at least five or six points) and calculation of median effective concentration values (EC50 or IC50) were performed by nonlinear regression analysis of the dose–response curves generated using Prism 7 (GraphPad Software, Inc., San Diego, CA, USA).

FPR2-HL60 cells = molecular target: T1, FPR2-HL60 cells (Homo sapiens, UniProt P25090); test: Inhibition of WKYMVM-induced Ca2+ influx in FPR2-HL60 cells; assay type: cell-based; conditions: pure compounds; 10 min preincubation; induced by 5 nM WKYMVM
T1 construct: expressed in transfected cells
T1 sequence (P25090 1-351): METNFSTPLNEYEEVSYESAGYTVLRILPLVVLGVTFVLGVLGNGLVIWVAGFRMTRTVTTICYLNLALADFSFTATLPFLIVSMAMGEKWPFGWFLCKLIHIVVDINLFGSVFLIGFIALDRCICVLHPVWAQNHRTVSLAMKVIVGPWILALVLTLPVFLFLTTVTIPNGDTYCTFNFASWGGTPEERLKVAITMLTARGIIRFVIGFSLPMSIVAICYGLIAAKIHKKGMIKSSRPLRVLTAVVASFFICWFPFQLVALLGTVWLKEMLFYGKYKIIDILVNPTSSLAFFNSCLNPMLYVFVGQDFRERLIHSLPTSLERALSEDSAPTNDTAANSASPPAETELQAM
Method: (§4) Human promyelocytic leukemia HL60 cells stably transfected with FPR1 (FPR1-HL60 cells) or FPR2 (FPR2-HL60 cells) were kindly provided by Dr. Marie-Josephe Rabiet, INSERM, Grenoble, France. These cells were cultured in RPMI 1640 medium containing 10% heat-inactivated fetal calf serum, 10 mM HEPES, 100 μg/mL streptomycin, 100 U/mL penicillin, and G418 (1 mg/mL). G418 was removed before assays were performed.
(§5) Changes in intracellular Ca^2+ concentrations ([Ca^2+]i) in human neutrophils were measured with a FlexStation 3 scanning fluorometer (Molecular Devices), as previously described. To assess the direct effects of test compounds or pure essential oils on Ca^2+ influx, the compounds/oils were added to the wells (final concentration of DMSO was 1%), and changes in fluorescence were monitored (λex = 485 nm, λem = 538 nm) every 5 s for 240 s at room temperature after addition of the test compound. To evaluate inhibitory effects of the compounds on FPR1/FPR2-dependent Ca^2+ influx, the compounds were added to the wells (final concentration of DMSO was 1%) with cells (human neutrophils or FPR1/FPR2 HL60 cells). The samples were preincubated for 10 min, followed by addition of 5 nM fMLF (for human neutrophils or FPR1-HL60 cells) or 5 nM WKYMVM (for FPR2-HL60 cells). The maximum change in fluorescence, expressed in arbitrary units over baseline, was used to determine the agonist response. Responses were normalized to the response induced by 5 nM fMLF or 5 nM WKYMVM, which were assigned as 100%.
as §3

human neutrophils [2] = test: Ca2+ influx (direct effect) in human neutrophils; assay type: cell-based; conditions: Homo sapiens, Neutrophil; pure compounds; direct effect on [Ca2+]i; mean ± SD of three experiments
From the text: (§6) For isolation of human neutrophils, blood was collected from healthy donors in accordance with a protocol approved by the Institutional Review Board at Montana State University (Protocol #MQ041017), as described previously. Isolated neutrophils were washed and resuspended in HBSS^–. Neutrophil preparations were routinely >95% pure and >98% viable. Neutrophils were obtained from multiple different donors (n = 8); however, the cells from different donors were never pooled during experiments.
as §5, §3

FPR1-HL60 cells = molecular target: T2, FPR1-HL60 cells (Homo sapiens, UniProt P21462); test: Inhibition of fMLF-induced Ca2+ influx in FPR1-HL60 cells; assay type: cell-based; conditions: pure compounds; 10 min preincubation; induced by 5 nM fMLF
T2 construct: expressed in transfected cells
T2 sequence (P21462 1-350): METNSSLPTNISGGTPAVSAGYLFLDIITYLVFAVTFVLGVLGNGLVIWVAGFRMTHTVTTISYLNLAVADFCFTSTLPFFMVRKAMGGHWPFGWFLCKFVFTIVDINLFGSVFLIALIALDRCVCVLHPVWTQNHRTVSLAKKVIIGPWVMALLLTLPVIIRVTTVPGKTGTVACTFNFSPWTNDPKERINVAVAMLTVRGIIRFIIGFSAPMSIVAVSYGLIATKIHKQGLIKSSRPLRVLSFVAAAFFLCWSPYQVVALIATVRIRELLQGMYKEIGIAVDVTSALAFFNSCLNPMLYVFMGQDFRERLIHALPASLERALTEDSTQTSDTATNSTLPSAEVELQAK
Method: as §4, §5, §3

PIM1 = molecular target: T3, PIM1 (Homo sapiens, UniProt P11309); test: KINOMEscan kinase Kd determination, PIM1; assay type: binding; conditions: maximum concentration of 33 µM
T3 construct: purchased Eurofins Pharma Discovery, San Diego, CA, USA (KINOMEscan service)
Method: (§7) KINOMEscan®® was used to determine the dissociation constant (Kd) of the indicated sesquiterpenes for selected kinases (Eurofins Pharma Discovery, San Diego, CA, USA). […] Assays were performed in duplicate, and the average mean value is shown.

human neutrophils [3] = test: Inhibition of fMLF-induced Ca2+ influx in human neutrophils; assay type: cell-based; conditions: Homo sapiens, Neutrophil; pure compounds; 10 min preincubation; induced by 5 nM fMLF
From the text: as §6, §5, §3

MAPKAPK2 = molecular target: T4, MAPKAPK2 (Homo sapiens, UniProt P49137); test: KINOMEscan kinase Kd determination, MAPKAPK2; assay type: binding; conditions: maximum concentration of 33 µM
T4 construct: purchased Eurofins Pharma Discovery, San Diego, CA, USA (KINOMEscan service)
Method: as §7

human neutrophils [4] = test: Neutrophil chemotaxis assay (fMLF-induced); assay type: cell-based; conditions: Homo sapiens, Neutrophil; pure compounds; chemotaxis induced by 1 nM fMLF
From the text: as §6
Human neutrophils were resuspended in HBSS^+ containing 2% (v/v) heat-inactivated fetal bovine serum (2 × 10^6 cells/mL), and chemotaxis was analyzed in 96-well ChemoTx chemotaxis chambers (Neuroprobe, Gaithersburg, MD), as described previously. Curve fitting (at least eight to nine points) and calculation of median effective concentration values (IC50) were performed by nonlinear regression analysis of the dose-response curves generated using GraphPad Prism 8.

[5] = system: human C20 microglial cells; test: Ca2+ influx (direct effect) in C20 microglial cells; assay type: cell-based; conditions: pure compounds, direct effect on [Ca2+]i, mean ± SD of three experiments; for EC50: Homo sapiens
Method: as §1, §2, §3

JNK3 = molecular target: T5, JNK3 (Homo sapiens, UniProt P53779); test: KINOMEscan kinase Kd determination, JNK3; assay type: binding; conditions: maximum concentration of 33 µM
T5 construct: purchased Eurofins Pharma Discovery, San Diego, CA, USA (KINOMEscan service)
Method: as §7

human neutrophils [6] = conditions: cited from earlier work; for Inhibition of agonist-induced neutrophil Ca2+ mobilization: previous studies
human neutrophils [7] = system: human neutrophils; set-up: method as in PMID 27586050, PMID 25959257; conditions: direct effect; previous studies; cited from earlier work

T3 sequence (P11309 whole entry): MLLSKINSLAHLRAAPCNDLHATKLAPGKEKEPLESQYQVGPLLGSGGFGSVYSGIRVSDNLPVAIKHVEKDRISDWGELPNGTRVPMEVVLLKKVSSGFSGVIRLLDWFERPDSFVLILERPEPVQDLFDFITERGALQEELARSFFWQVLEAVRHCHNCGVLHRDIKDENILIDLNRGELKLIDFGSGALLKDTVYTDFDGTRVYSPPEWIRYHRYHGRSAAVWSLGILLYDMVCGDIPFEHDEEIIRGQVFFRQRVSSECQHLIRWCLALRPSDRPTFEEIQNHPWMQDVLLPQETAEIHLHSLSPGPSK
T5 sequence (P53779 whole entry): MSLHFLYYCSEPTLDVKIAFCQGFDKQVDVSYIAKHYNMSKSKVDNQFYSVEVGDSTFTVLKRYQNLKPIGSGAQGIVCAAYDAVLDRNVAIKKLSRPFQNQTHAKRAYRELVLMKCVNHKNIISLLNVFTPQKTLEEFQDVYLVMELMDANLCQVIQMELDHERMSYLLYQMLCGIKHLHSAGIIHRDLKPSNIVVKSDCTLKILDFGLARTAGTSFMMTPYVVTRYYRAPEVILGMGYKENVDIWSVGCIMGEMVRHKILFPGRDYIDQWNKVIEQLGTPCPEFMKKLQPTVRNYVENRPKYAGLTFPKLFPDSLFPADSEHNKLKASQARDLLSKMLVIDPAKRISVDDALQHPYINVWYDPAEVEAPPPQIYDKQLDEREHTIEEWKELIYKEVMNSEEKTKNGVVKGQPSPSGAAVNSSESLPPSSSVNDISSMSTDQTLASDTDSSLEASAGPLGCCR
T4 sequence (P49137 whole entry): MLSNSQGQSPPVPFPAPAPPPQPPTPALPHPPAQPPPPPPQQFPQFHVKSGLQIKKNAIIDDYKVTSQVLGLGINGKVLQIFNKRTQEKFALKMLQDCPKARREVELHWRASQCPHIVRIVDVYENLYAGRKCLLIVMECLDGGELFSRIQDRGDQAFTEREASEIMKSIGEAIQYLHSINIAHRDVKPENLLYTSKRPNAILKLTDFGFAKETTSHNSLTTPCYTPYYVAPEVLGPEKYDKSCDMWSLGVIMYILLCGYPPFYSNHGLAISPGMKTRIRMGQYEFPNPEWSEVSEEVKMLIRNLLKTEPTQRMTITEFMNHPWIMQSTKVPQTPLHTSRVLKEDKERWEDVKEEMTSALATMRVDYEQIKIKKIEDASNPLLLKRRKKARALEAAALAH

IC50 [1] [µM] | IC50 (FPR2-HL60 cells) [µM] | EC50 (human neutrophils [2]) [µM] | IC50 (FPR1-HL60 cells) [µM] | Binding affinity (Kd) toward PIM1 (PIM1) | IC50 (human neutrophils [3]) [µM] | Binding affinity (Kd) toward MAPKAPK2 (MAPKAPK2) | IC50 (human neutrophils [4]) [µM] | EC50 [5] [µM] | Binding affinity (Kd) toward JNK3 (JNK3) | Compound | Cell viability (cytotoxicity), 30 min incubation (HL60 cells) | Inhibition of agonist-induced neutrophil Ca2+ mobilization (human neutrophils [6]) | Activation of neutrophil Ca2+ mobilization (human neutrophils [7]) | also measured
30.7 ± 4.4 | 16.7 ± 5.5 | 37.6 ± 8.4 | 21.8 ± 6.1 | did not observe any binding activity | 11 ± 3.8 | did not observe any binding activity | 37.9 ± 2.2 | 25.9 ± 5.2 | did not observe any binding activity | C=C[C@]1(C)Cc2occ(C)c2C[C@H]1C(=C)C [Curzerene] | minimal effects on cell viability | – | – | –
10.7 ± 2.3 | 25 ± 7.2 | 24 ± 4.6 | 27.7 ± 2.9 | did not observe any binding activity | 27.9 ± 8.9 | did not observe any binding activity | 8.5 ± 0.6 | 27.7 ± 2.5 | did not observe any binding activity | CC(C)=C1C/C=C(\C)CC/C=C(\C)CC1=O [Germacrone] | minimal effects on cell viability | – | – | –
9.8 ± 3.4 | 31.6 ± 5.3 | 39.4 ± 9.5 | 32.2 ± 6.4 | did not observe any binding activity | 36.2 ± 8.2 | did not observe any binding activity | 4.9 ± 0.8 | > 50 | did not observe any binding activity | C=C1CC[C@@H]2[C@H]([C@H]3[C@H]1CC[C@]3(C)O)C2(C)C [Spathulenol, spathulenol] | minimal effects on cell viability | – | – | Ca2+ Influx C20 cells EC50 [5]: inactive or had very low activity
– | – | – | – | – | – | – | – | – | – | C=C1C2CCC(C2)C1(C)C (centres unmarked) [camphene] | – | no inhibitory effect | – | –
– | – | – | – | – | – | – | – | – | – | C=C1/C=C/[C@H](C(C)C)CC/C(C)=C/CC1 [germacrene D] | – | – | – | Inhibition of agonist-induced Ca2+ mobilization in human neutrophils (human neutrophils [6]; found previously): inhibited
– | – | – | – | – | – | – | – | – | – | C=C(C)[C@H]1CC=C(C)CC1 [limonene] | – | no inhibitory effect | no activating effects | –
– | – | – | – | – | – | – | – | – | – | C=CC(C)(O)CCC=C(C)C (centres unmarked) [linalool] | – | no inhibitory effect | no activating effects | –
– | – | – | – | – | – | – | – | – | – | C=CC(=C)CCC=C(C)C [myrcene] | – | no inhibitory effect | no activating effects | –
– | – | – | – | – | – | – | – | – | – | Cc1ccc(C(C)C)cc1 [p-cymene] | – | no inhibitory effect | no activating effects | –
